Target: Human eIF4E (Homo sapiens (Human), UniProt P06730)
Assay: Human eIF4E/4G binding assay (time-resolved fluorescence, HH-eIF4E and biotin-labeled 4G2 peptide)
Settings: inhibition of binding of His-tagged human eIF4E (aa 28-217) to biotin-labeled 4G2 peptide
Protocol: The protein was solubilized with 8 M urea and purified under denaturing conditions using nickel-charged HisTrap HP columns (GE Healthcare). The protein was refolded by diluting to approximately 0.25 mg/mL with 6 M urea, 20 mM Hepes pH 7.0, 500 mM NaCl, 1 mM DTT, 1 mM EDTA, and 0.5 M arginine.HCl, and then dialyzing overnight into the same buffer without the urea. The protein was further dialyzed into 20 mM Hepes pH 6.5, 50 mM NaCl, 1 mM EDTA, and 1 mM DTT, filtered, and then concentrated using Hitrap SP sepharose FF columns (GE Healthcare). The protein was dialyzed into 20 mM Hepes pH 7.0, 500 mM NaCl, 5 mM DTT, and 10% glycerol and stored at −80° C. until use. Test compounds (1.6 mM stock in DMSO) were diluted 3 fold in series in DMSO. Compound solutions were diluted 4 fold in Assay Buffer (50 mM sodium phosphate, pH 6.5, 50 mM KCl, 1 mM DTT and 0.5 mg/mL gammaglobulin). […] The samples were incubated at room temperature for 20 minutes. […] IC50 values were calculated using Condoseo software (Genedata AG).

Sequence of Human eIF4E (P06730 28-217): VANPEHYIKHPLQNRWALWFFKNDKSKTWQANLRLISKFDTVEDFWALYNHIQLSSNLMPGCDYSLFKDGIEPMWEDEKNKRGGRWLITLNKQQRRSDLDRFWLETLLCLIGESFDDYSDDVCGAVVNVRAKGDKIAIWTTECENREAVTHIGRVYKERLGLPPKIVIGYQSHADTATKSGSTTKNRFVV

| SMILES | IC50 |
| --- | --- |
| CCOc1ncc(-c2ccc(-c3nc(-c4ccc(Cl)c(Cl)c4)cs3)cc2C(=O)O)cn1 [Example 82, 5-[4-(3,4-Dichloro-phenyl)-thiazol-2-yl]-2-(2-ethoxy-pyrimidin-5-yl)-benzoic acid] | 3.6 µM |
| COc1ncc(-c2ccc(-c3nc(-c4ccc(Cl)c(Cl)c4)cs3)cc2C(=O)O)cn1 [Example 83, 5-[4-(3,4-Dichloro-phenyl)-thiazol-2-yl]-2-(2-methoxy-pyrimidin-5-yl)-benzoic acid] | 14 µM |
| O=C(O)c1cc(-c2nc(-c3ccc(Cl)c(Cl)c3)cs2)ccc1-c1cnc(O)nc1 [Example 84, 5-[4-(3,4-Dichloro-phenyl)-thiazol-2-yl]-2-(2-hydroxy-pyrimidin-5-yl)-benzoic acid] | 1.2 µM |
| COc1cccc(-c2ccc(-c3nc(-c4ccc(Cl)c(Cl)c4)cs3)cc2C(=O)O)n1 [Example 85, 5-[4-(3,4-Dichloro-phenyl)-thiazol-2-yl]-2-(6-methoxy-pyridin-2-yl)-benzoic acid] | 9.7 µM |
| COc1ccc(-c2ccc(-c3nc(-c4ccc(Cl)c(Cl)c4)cs3)cc2C(=O)O)c(C(F)(F)F)c1 [Example 87, 4-[4-(3,4-Dichloro-phenyl)-thiazol-2-yl]-4′-methoxy-2′-trifluoromethyl-biphenyl-2-carboxylic acid] | 1.3 µM |
| O=C(O)c1cc(-c2nc(-c3ccc(Cl)c(Cl)c3)cs2)ccc1-c1cc(OC(F)(F)F)ccc1Cl [Example 88, 2′-Chloro-4-[4-(3,4-dichloro-phenyl)-thiazol-2-yl]-5′-trifluoromethoxy-biphenyl-2-carboxylic acid] | 0.6 µM |
| CCOc1ccc(-c2ccc(-c3nc(-c4ccc(Cl)c(Cl)c4)cs3)cc2C(=O)O)c(Cl)c1 [Example 89, 2′-Chloro-4-[4-(3,4-dichloro-phenyl)-thiazol-2-yl]-4′-ethoxy-biphenyl-2-carboxylic acid] | 2 µM |
| COc1cccc(Cl)c1-c1ccc(-c2nc(-c3ccc(Cl)c(Cl)c3)cs2)cc1C(=O)O [Example 90, 2′-Chloro-4-[4-(3,4-dichloro-phenyl)-thiazol-2-yl]-6′-methoxy-biphenyl-2-carboxylic acid] | 1.8 µM |
| COc1cccc(-c2ccc(-c3nc(-c4ccc(Cl)c(Cl)c4)cs3)cc2C(=O)O)c1 [Example 91, 4-[4-(3,4-Dichloro-phenyl)-thiazol-2-yl]-3′-methoxy-biphenyl-2-carboxylic acid] | 5 µM |
| COc1ccccc1-c1ccc(-c2nc(-c3ccc(Cl)c(Cl)c3)cs2)cc1C(=O)O [Example 92, 4-[4-(3,4-Dichloro-phenyl)-thiazol-2-yl]-2′-methoxy-biphenyl-2-carboxylic acid] | 4.8 µM |
| COc1ccc(Cl)c(-c2ccc(-c3nc(-c4ccc(Cl)c(Cl)c4)cs3)cc2C(=O)O)c1 [Example 93, 2′-Chloro-4-[4-(3,4-dichloro-phenyl)-thiazol-2-yl]-5′-methoxy-biphenyl-2-carboxylic acid] | 3 µM |
| COc1ccc(-c2ccc(-c3nc(-c4ccc(Cl)c(Cl)c4)cs3)cc2C(=O)O)c(Cl)c1 [Example 94, 2′-Chloro-4-[4-(3,4-dichloro-phenyl)-thiazol-2-yl]-4′-methoxy-biphenyl-2-carboxylic acid] | 1.5 µM |
| O=C(O)c1cc(-c2nc(-c3ccc(Cl)c(Cl)c3)cs2)ccc1-c1cc(O)ccc1Cl [Example 95, 2′-Chloro-4-[4-(3,4-dichloro-phenyl)-thiazol-2-yl]-5′-hydroxy-biphenyl-2-carboxylic acid] | 3.4 µM |
| Cc1ncccc1-c1ccc(-c2nc(-c3ccc(Cl)c(Cl)c3)cs2)cc1C(=O)O [Example 98, 5-[4-(3,4-Dichloro-phenyl)-thiazol-2-yl]-2-(2-methyl-pyridin-3-yl)-benzoic acid] | 4 µM |
| O=C(O)c1cc(-c2nc(-c3ccc(Cl)c(Cl)c3)cs2)ccc1-c1ccc(F)cn1 [Example 100, 5-[4-(3,4-Dichloro-phenyl)-thiazol-2-yl]-2-(5-fluoro-pyridin-2-yl)-benzoic acid] | 3 µM |
| O=C(O)c1cc(-c2nc(-c3ccc(Cl)c(Cl)c3)cs2)ccc1-c1cncc(Cl)c1 [Example 102, 2-(5-Chloro-pyridin-3-yl)-5-[4-(3,4-dichloro-phenyl)-thiazol-2-yl]-benzoic acid] | 5.4 µM |
| O=C(O)c1cc(-c2nc(-c3ccc(Cl)c(Cl)c3)cs2)ccc1-c1ccncc1 [Example 103, 5-[4-(3,4-Dichloro-phenyl)-thiazol-2-yl]-2-pyridin-4-yl-benzoic acid] | 8.5 µM |
| Cc1cc(C#N)ccc1-c1ccc(-c2nc(-c3ccc(Cl)c(Cl)c3)cs2)cc1C(=O)O [Example 105, 4′-Cyano-4-[4-(3,4-dichloro-phenyl)-thiazol-2-yl]-2′-methyl-biphenyl-2-carboxylic acid] | 1.3 µM |

| SMILES | IC50 |
| --- | --- |
| N#Cc1ccc(-c2ccc(-c3nc(-c4ccc(Cl)c(Cl)c4)cs3)cc2C(=O)O)cc1 [Example 106, 4′-Cyano-4-[4-(3,4-dichloro-phenyl)-thiazol-2-yl]-biphenyl-2-carboxylic acid] | 7.6 µM |
| N#Cc1cccc(-c2ccc(-c3nc(-c4ccc(Cl)c(Cl)c4)cs3)cc2C(=O)O)c1 [Example 107, 3′-Cyano-4-[4-(3,4-dichloro-phenyl)-thiazol-2-yl]-biphenyl-2-carboxylic acid] | 3.2 µM |
| N#Cc1ccc(Cl)c(-c2ccc(-c3nc(-c4ccc(Cl)c(Cl)c4)cs3)cc2C(=O)O)c1 [Example 108, 2′-Chloro-5′-cyano-4-[4-(3,4-dichloro-phenyl)-thiazol-2-yl]-biphenyl-2-carboxylic acid] | 3.5 µM |
| NC(=O)c1ccc(Cl)c(-c2ccc(-c3nc(-c4ccc(Cl)c(Cl)c4)cs3)cc2C(=O)O)c1 [Example 109, 5′-Carbamoyl-2′-chloro-4-[4-(3,4-dichloro-phenyl)-thiazol-2-yl]-biphenyl-2-carboxylic acid] | 3.7 µM |
| N#Cc1ccc(Cl)cc1-c1ccc(-c2nc(-c3ccc(Cl)c(Cl)c3)cs2)cc1C(=O)O [Example 110, 5′-Chloro-2′-cyano-4-[4-(3,4-dichloro-phenyl)-thiazol-2-yl]-biphenyl-2-carboxylic acid] | 1.7 µM |
| N#Cc1ccc(-c2ccc(-c3nc(-c4ccc(Cl)c(Cl)c4)cs3)cc2C(=O)O)cc1Cl [Example 114, 3′-Chloro-4′-cyano-4-[4-(3,4-dichloro-phenyl)-thiazol-2-yl]-biphenyl-2-carboxylic acid] | 1.7 µM |
| N#Cc1cc(-c2ccc(-c3nc(-c4ccc(Cl)c(Cl)c4)cs3)cc2C(=O)O)ccc1Cl [Example 115, 4′-Chloro-3′-cyano-4-[4-(3,4-dichloro-phenyl)-thiazol-2-yl]-biphenyl-2-carboxylic acid] | 1.9 µM |
| CC(=O)c1cccc(-c2ccc(-c3nc(-c4ccc(Cl)c(Cl)c4)cs3)cc2C(=O)O)c1 [Example 116, 3′-Acetyl-4-[4-(3,4-dichloro-phenyl)-thiazol-2-yl]-biphenyl-2-carboxylic acid] | 7.7 µM |
| CC(=O)c1ccccc1-c1ccc(-c2nc(-c3ccc(Cl)c(Cl)c3)cs2)cc1C(=O)O [Example 117, 2′-Acetyl-4-[4-(3,4-dichloro-phenyl)-thiazol-2-yl]-biphenyl-2-carboxylic acid] | 7.7 µM |
| CC(=O)c1ccc(Cl)c(-c2ccc(-c3nc(-c4ccc(Cl)c(Cl)c4)cs3)cc2C(=O)O)c1 [Example 118, 5′-Acetyl-2′-chloro-4-[4-(3,4-dichloro-phenyl)-thiazol-2-yl]-biphenyl-2-carboxylic acid] | 1.5 µM |
| CC(=O)c1sccc1-c1ccc(-c2nc(-c3ccc(Cl)c(Cl)c3)cs2)cc1C(=O)O [Example 119, 2-(2-Acetyl-thiophen-3-yl)-5-[4-(3,4-dichloro-phenyl)-thiazol-2-yl]-benzoic acid] | 9.6 µM |
| CC(=O)c1ccc(-c2ccc(-c3nc(-c4ccc(Cl)c(Cl)c4)cs3)cc2C(=O)O)cc1 [Example 120, 4′-Acetyl-4-[4-(3,4-dichloro-phenyl)-thiazol-2-yl]-biphenyl-2-carboxylic acid] | 3.8 µM |
| O=C(O)c1ccc(-c2ccc(-c3nc(-c4ccc(Cl)c(Cl)c4)cs3)cc2C(=O)O)c(F)c1 [Example 121, 4-[4-(3,4-Dichloro-phenyl)-thiazol-2-yl]-2′-fluoro-biphenyl-2,4′-dicarboxylic acid] | 6.1 µM |
| Cc1ccc(C=O)c(-c2ccc(-c3nc(-c4ccc(Cl)c(Cl)c4)cs3)cc2C(=O)O)c1 [Example 122, 4-[4-(3,4-Dichloro-phenyl)-thiazol-2-yl]-2′-formyl-5′-methyl-biphenyl-2-carboxylic acid] | 5.1 µM |
| O=Cc1ccccc1-c1ccc(-c2nc(-c3ccc(Cl)c(Cl)c3)cs2)cc1C(=O)O [Example 123, 4-[4-(3,4-Dichloro-phenyl)-thiazol-2-yl]-2′-formyl-biphenyl-2-carboxylic acid] | 5.5 µM |
| O=C(O)c1cc(-c2nc(-c3ccc(Cl)c(Cl)c3)cs2)ccc1-c1ccc(C(F)(F)F)cc1C(F)(F)F [Example 125, 4-[4-(3,4-Dichloro-phenyl)-thiazol-2-yl]-2′,4′-bis-trifluoromethyl-biphenyl-2-carboxylic acid] | 3 µM |
| O=C(O)c1cc(-c2nc(-c3ccc(Cl)c(Cl)c3)cs2)ccc1-c1cccc(C(F)(F)F)c1Cl [Example 126, 2′-Chloro-4-[4-(3,4-dichloro-phenyl)-thiazol-2-yl]-3′-trifluoromethyl-biphenyl-2-carboxylic acid] | 2.8 µM |

From patent publication US9073881B2, “Benzoic acid derivatives” (HOFFMANN-LA ROCHE INC., priority 2011, dated 2015)
